PMC8282008, “Brigatinib causes tumor shrinkage in both NF2-deficient meningioma and schwannoma through inhibition of multiple tyrosine kinases but not ALK” (PLoS ONE, 2021)

Tests used:
Assay type in all cases: cell-based
[1] = molecular target: FAK2 (PTK2B) (Homo sapiens, UniProt Q14289); test: MIB/MS kinome profiling, HS01/HS11 Schwann cells, […] (text: lysate treatment; legend: cells treated […] h)
[2] = molecular target: T1, GAK (Cyclin G-associated kinase) (Homo sapiens, UniProt O14976); test: NanoBRET TE intracellular kinase assay with K-10 tracer in HEK293T cells
T1 construct: NanoLuc fusion (Promega NV1421)
T1 sequence (O14976 1-1311): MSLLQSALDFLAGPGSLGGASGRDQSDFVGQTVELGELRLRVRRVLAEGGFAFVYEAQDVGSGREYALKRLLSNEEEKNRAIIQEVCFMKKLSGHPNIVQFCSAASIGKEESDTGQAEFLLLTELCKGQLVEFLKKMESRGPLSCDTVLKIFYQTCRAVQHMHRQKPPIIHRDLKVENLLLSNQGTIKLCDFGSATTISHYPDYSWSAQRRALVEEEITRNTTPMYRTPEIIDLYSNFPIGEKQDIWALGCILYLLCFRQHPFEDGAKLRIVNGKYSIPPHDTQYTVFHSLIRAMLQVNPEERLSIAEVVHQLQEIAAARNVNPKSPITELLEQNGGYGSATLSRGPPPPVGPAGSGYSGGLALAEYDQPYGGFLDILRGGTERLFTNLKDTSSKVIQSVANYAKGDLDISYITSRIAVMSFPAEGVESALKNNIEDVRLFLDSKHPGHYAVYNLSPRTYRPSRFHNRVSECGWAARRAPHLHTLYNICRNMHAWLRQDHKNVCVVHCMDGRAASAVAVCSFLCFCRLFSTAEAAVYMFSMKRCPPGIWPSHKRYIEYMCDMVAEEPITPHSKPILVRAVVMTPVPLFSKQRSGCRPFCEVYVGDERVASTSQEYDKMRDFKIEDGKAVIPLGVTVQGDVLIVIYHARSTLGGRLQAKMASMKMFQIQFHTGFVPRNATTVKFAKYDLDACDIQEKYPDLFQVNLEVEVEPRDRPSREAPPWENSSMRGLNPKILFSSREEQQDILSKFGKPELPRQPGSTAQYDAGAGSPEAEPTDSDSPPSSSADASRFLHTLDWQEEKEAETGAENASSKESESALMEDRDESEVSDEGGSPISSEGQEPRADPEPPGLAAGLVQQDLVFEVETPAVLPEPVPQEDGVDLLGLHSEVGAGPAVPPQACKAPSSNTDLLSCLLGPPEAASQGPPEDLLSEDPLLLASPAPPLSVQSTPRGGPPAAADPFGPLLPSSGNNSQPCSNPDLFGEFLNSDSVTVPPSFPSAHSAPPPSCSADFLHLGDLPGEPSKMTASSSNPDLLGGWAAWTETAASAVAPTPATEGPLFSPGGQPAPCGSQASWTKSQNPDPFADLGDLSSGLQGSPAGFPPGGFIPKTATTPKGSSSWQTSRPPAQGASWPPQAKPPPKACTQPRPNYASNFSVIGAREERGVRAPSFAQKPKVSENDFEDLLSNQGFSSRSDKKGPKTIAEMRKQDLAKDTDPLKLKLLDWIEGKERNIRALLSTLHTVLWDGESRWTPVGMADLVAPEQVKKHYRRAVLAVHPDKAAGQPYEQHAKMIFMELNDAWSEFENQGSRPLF

[3] = molecular target: T2, TNK2 (ACK1, Activated Cdc42-associated kinase) (Homo sapiens, UniProt Q07912); test: as above
T2 construct: NanoLuc fusion (Promega NV4451)
T2 sequence (Q07912 whole entry, the tested form may be a part): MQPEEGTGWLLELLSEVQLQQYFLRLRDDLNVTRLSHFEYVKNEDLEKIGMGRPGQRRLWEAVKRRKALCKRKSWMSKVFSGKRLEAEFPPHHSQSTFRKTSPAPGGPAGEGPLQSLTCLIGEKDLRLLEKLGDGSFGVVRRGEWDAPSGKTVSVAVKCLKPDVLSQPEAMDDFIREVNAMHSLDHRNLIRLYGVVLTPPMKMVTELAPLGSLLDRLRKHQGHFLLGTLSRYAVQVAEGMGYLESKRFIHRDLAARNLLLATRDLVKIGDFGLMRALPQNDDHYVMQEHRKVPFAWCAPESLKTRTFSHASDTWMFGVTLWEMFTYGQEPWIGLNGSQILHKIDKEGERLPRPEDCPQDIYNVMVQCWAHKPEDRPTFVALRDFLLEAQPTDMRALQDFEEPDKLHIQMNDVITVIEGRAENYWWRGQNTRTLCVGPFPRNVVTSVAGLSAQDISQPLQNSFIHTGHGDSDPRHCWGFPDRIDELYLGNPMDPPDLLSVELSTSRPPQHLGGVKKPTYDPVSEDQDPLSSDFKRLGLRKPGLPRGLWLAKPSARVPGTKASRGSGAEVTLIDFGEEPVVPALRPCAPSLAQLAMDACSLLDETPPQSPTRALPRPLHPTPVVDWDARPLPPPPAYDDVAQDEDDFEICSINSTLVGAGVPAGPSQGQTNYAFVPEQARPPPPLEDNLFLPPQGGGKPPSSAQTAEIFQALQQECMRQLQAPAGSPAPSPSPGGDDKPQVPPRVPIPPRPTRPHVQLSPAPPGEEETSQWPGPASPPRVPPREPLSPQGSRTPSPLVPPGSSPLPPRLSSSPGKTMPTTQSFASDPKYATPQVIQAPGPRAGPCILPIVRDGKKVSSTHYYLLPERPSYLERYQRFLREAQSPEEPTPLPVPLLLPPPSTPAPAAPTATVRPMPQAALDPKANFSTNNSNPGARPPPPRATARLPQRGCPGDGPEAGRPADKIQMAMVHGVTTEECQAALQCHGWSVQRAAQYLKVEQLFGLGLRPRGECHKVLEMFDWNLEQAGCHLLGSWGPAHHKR

[4] = molecular target: T3, FER (Fps/Fes-related kinase) (Homo sapiens, UniProt P16591); test: as above
T3 construct: NanoLuc fusion (Promega NV1331)
T3 sequence (P16591 whole entry, the tested form may be a part): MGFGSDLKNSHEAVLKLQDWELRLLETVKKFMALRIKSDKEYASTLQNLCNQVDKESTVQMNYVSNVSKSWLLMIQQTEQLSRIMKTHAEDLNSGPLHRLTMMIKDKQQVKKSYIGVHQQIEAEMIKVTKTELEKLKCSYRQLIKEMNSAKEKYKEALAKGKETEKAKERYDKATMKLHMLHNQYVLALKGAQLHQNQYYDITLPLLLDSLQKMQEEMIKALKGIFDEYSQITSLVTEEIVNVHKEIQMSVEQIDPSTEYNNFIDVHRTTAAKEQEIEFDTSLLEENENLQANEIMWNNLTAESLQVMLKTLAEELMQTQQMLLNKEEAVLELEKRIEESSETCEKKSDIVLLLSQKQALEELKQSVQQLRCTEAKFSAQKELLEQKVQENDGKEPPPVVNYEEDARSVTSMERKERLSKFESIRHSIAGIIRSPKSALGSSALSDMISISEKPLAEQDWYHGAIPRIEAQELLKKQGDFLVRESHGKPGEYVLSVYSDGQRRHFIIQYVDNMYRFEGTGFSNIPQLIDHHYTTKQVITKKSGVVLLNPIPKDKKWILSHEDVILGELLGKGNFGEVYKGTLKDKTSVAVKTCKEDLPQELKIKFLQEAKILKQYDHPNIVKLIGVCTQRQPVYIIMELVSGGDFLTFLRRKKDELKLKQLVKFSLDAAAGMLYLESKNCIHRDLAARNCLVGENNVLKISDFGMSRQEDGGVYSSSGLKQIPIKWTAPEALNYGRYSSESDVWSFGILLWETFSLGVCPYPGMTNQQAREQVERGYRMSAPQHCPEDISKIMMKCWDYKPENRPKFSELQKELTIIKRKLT

[5] = molecular target: T4, FAK1 (PTK2, focal adhesion kinase 1) (Homo sapiens, UniProt Q05397); test: as above
T4 construct: NanoLuc fusion (Promega NV1921)
T4 sequence (Q05397 2-1052): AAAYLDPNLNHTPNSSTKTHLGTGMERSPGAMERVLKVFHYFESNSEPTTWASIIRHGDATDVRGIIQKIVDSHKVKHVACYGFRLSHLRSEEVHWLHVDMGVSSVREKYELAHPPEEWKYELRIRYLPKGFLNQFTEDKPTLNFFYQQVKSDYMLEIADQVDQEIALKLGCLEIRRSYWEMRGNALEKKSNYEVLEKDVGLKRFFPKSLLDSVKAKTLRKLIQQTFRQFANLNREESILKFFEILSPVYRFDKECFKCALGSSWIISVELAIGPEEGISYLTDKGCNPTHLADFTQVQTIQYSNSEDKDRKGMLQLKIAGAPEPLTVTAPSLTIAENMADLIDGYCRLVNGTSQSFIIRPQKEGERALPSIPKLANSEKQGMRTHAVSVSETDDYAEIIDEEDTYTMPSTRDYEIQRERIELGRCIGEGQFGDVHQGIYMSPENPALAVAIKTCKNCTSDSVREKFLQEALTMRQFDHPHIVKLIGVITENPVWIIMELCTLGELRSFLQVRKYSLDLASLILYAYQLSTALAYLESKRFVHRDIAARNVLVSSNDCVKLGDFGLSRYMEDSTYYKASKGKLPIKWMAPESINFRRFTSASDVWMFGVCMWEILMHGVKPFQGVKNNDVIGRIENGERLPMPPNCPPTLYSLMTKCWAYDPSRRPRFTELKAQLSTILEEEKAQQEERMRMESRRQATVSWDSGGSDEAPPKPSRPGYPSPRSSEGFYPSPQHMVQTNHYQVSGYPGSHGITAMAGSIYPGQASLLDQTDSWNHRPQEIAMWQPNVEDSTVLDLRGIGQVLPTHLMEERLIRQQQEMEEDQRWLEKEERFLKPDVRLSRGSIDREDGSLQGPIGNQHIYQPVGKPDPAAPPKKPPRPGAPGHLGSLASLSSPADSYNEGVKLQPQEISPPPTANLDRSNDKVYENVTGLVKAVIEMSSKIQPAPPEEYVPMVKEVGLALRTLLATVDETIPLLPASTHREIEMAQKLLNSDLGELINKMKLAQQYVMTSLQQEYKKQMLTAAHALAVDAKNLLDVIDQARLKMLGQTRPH

Chain of FAK2 (PTK2B) (Q14289 whole entry): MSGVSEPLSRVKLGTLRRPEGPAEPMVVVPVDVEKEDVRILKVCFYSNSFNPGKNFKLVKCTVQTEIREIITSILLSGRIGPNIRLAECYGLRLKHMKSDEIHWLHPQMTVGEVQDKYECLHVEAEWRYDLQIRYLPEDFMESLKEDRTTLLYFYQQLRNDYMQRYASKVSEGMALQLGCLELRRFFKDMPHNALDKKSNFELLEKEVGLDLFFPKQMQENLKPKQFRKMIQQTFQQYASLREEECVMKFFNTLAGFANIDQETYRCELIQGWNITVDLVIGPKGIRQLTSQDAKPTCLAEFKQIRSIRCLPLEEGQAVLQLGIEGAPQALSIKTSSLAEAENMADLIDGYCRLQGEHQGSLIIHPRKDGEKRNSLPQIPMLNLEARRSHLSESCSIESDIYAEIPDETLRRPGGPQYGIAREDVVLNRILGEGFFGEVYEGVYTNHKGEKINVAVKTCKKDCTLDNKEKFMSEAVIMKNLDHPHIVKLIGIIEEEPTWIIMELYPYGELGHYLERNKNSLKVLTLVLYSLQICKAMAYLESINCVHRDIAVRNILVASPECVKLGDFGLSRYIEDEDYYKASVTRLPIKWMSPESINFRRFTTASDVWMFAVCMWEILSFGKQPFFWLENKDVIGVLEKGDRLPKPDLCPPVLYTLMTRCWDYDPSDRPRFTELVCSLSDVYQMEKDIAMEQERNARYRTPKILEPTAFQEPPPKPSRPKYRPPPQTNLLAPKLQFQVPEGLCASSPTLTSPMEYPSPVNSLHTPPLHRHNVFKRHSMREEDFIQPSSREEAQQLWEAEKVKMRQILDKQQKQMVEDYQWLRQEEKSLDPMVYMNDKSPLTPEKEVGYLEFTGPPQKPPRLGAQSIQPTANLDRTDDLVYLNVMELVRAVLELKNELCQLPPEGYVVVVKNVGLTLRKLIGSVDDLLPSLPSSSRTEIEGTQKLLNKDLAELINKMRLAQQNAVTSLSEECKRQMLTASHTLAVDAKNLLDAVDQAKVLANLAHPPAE

IC50 [2]: 155 nM
IC50 [3]: 350 nM
IC50 [4]: 304 nM
IC50 [5]: 573 nM
Structure (SMILES): COc1cc(N2CCC(N3CCN(C)CC3)CC2)ccc1Nc1ncc(Cl)c(Nc2ccccc2P(C)(C)=O)n1 [brigatinib]
MIB/MS kinome profiling, HS01/HS11 Schwann cells, 1 uM (text: lysate treatment;) [1]: kinases with the largest reduction in binding were FER, TNK2, FAK1 (PTK2) and FAK2 (PTK2B)
